We go through 29 molecules from ChEMBL document CHEMBL1833972 (Bioorg Med Chem Lett, 2011).

In brackets after ≈: the same amount, converted by molar mass. Where only a bound is given, the exact number is not on record here.

Series [1] is described as follows: Solubility of the compound. The series is classed as physicochemical.
Series [2] can be described thus: in vitro. The following applies: rat, liver microsomes.
A short description of series [3]: Lipophilicity, log D of the compound. It is filed as physicochemical. The following applies: octanol/water.
A short description of series [4]: in vitro. The following applies: human, liver microsomes. For orientation: Liver microsomes are a subcellular fraction often used to study metabolism.
Series [5] is described as follows: in vitro. The settings on record: rat, cytosol.
Series [6] is described as follows: Thermodynamic solubility of compound at physiological pH. It is filed as physicochemical. The settings on record: read-out: Therm_solubility.

Turning to `COCCCN1CCN(c2cc(Cn3c(=O)[nH]c4c(N)nc(C(F)(F)F)cc43)ccn2)CC1`, in series [1], the solubility entry is reported as “soluble”.
Turning to `Nc1nc(C(F)(F)F)cc2c1[nH]c(=O)n2Cc1cccnc1N1CCC[C@H]1CN1CCCC1`, the solubility result in series [1] was “soluble”.
Regarding `Nc1nc(C(F)(F)F)cc2c1[nH]c(=O)n2Cc1ccc(NCc2ccccc2)nc1`, the intrinsic metabolic clearance (microsomal CLint) in “in vitro [2]” was 16 µL/min/mg; in the series “in vitro [4]”, less than 8 µL/min/mg. The molecule further showed a logD in series [3] of 1.8. For the same molecule, in the series “in vitro [5]”, the half-life was 4.17 h.
On to `CN1CCN(CC2CCCN2c2ncccc2Cn2c(=O)[nH]c3c(N)nc(C(F)(F)F)cc32)CC1` (stereo unspecified), for which the solubility entry in series [1] is reported as “soluble”.
As to `CN(C)CCN(C)c1ccc(Cn2c(=O)[nH]c3c(N)nc(C(F)(F)F)cc32)cn1`, the microsomal CLint in the series “in vitro [2]” is 11 µL/min/mg; in “in vitro [4]”, 16 µL/min/mg. Further, the pH-dependent lipophilicity (logD) in series [3] is 1.2.
Regarding `Nc1nc(C(F)(F)F)cc2c1[nH]c(=O)n2Cc1ccc(N2CCC[C@H]2CN2CCCC2)nc1`, the solubility result in series [1] is reported as “soluble”.
Turning to `Nc1nc(C(F)(F)F)cc2c1[nH]c(=O)n2Cc1ccnc(N2CCC[C@H]2CN2CCCC2)c1`, in series [1], the solubility result was “soluble”.
In the case of `CN1CCN(CCN(C)c2ccc(Cn3c(=O)[nH]c4c(N)nc(C(F)(F)F)cc43)cn2)CC1`, the microsomal CLint in “in vitro [2]” was determined as 15 µL/min/mg; in the series “in vitro [4]”, 25 µL/min/mg. In series [3], this molecule registered a logD of 1.5.
With `Nc1nc(C(F)(F)F)cc2c1[nH]c(=O)n2Cc1cccnc1OCCN1CCCC1`, the solubility entry in series [1] is “soluble”.
On to `CN(C)CCOc1ccc(Cn2c(=O)[nH]c3c(N)nc(C(F)(F)F)cc32)cn1`, for which the microsomal CLint amounted to 24 µL/min/mg in “in vitro [2]” and 22 µL/min/mg in the series “in vitro [4]”. Besides, the pH-dependent lipophilicity (logD) in series [3] came out at 1.2.
Regarding `COCCN1CCN(c2ncccc2Cn2c(=O)[nH]c3c(N)nc(C(F)(F)F)cc32)CC1`, the solubility result in series [1] is recorded as “soluble”.
As for `Nc1nc(C(F)(F)F)cc2c1[nH]c(=O)n2Cc1ccc(NCCN2CCCC2)nc1`, the intrinsic clearance (microsomal CLint) was less than 8.5 µL/min/mg in “in vitro [2]” and 8.5 µL/min/mg in “in vitro [4]”. In series [3], this molecule displayed a logD of 0.8.
In the case of `Nc1nc(C(F)(F)F)cc2c1[nH]c(=O)n2Cc1ccnc(OCCN2CCCC2)c1`, the solubility entry in series [1] is given as “soluble”.
Same read-out and setting: for `COCCNc1cc(Cn2c(=O)[nH]c3c(N)nc(C(F)(F)F)cc32)ccn1` the value was “soluble”; for `COCCCN1CCN(c2ccc(Cn3c(=O)[nH]c4c(N)nc(C(F)(F)F)cc43)cn2)CC1`, “soluble”.
Regarding `CN1CCN(CC2CCCN2c2ccc(Cn3c(=O)[nH]c4c(N)nc(C(F)(F)F)cc43)cn2)CC1` (stereo unspecified), the solubility result in series [1] is on record as “soluble”.
Same read-out and setting: the entry for `COCCNc1ncccc1Cn1c(=O)[nH]c2c(N)nc(C(F)(F)F)cc21` is “soluble”.
As for `Nc1nc(C(F)(F)F)cc2c1[nH]c(=O)n2Cc1ccc(NCCN2CCCCC2)nc1`, the microsomal CLint in the series “in vitro [2]” turned out to be 16 µL/min/mg; in “in vitro [4]”, 13 µL/min/mg. Moreover, the logD in series [3] is 1.3.
Consider `CN(C)CCNc1ccc(Cn2c(=O)[nH]c3c(N)nc(C(F)(F)F)cc32)cn1`, for which the figures for the intrinsic clearance (microsomal CLint) in “in vitro [2]” and in the series “in vitro [4]” were 16 µL/min/mg and 9 µL/min/mg, respectively. The solubility thermodynamic in series [6] amounted to 483 µg/mL (≈ 1220 µM). The molecule further registered a logD in series [3] of 0.7. For the same molecule, in “in vitro [5]”, the half-life is 6.17 h.
For the molecule `CCN(CC)CCN(C)c1ccc(Cn2c(=O)[nH]c3c(N)nc(C(F)(F)F)cc32)cn1`, the results for the microsomal CLint in “in vitro [2]” and in “in vitro [4]” were 11 µL/min/mg and 24 µL/min/mg, respectively. Further, the logD in series [3] was 1.3.
The corresponding values for `CN(CCN1CCCCC1)c1ccc(Cn2c(=O)[nH]c3c(N)nc(C(F)(F)F)cc32)cn1` are 13 µL/min/mg, 25 µL/min/mg and 1.8.
As for `Nc1nc(C(F)(F)F)cc2c1[nH]c(=O)n2Cc1ccc(OCCN2CCCC2)nc1`, the microsomal CLint in the series “in vitro [2]” is 9 µL/min/mg; in the series “in vitro [4]”, 10 µL/min/mg. For the same molecule, the solubility entry in series [1] is recorded as “soluble”. In addition, the log distribution coefficient (logD) in series [3] is 1.2.
For the molecule `Nc1nc(C(F)(F)F)cc2c1[nH]c(=O)n2Cc1ccc(NCCO)nc1`, the values for the microsomal CLint in the series “in vitro [2]” and in “in vitro [4]” were less than 8.5 µL/min/mg and less than 8 µL/min/mg, respectively. In addition, the logD in series [3] worked out at 1.6. The same molecule showed a half-life in the series “in vitro [5]” of 3.27 h.
`COCCN1CCN(c2cc(Cn3c(=O)[nH]c4c(N)nc(C(F)(F)F)cc43)ccn2)CC1`: in series [1], the solubility result is reported as “soluble”.
As for `COCCN1CCN(c2ccc(Cn3c(=O)[nH]c4c(N)nc(C(F)(F)F)cc43)cn2)CC1`, the results for the microsomal CLint in the series “in vitro [2]” and in “in vitro [4]” were 9 µL/min/mg and 17 µL/min/mg, respectively. The solubility entry in series [1] is listed as “soluble”. This molecule gave a logD in series [3] of 2.3.
Consider `COCCNc1ccc(Cn2c(=O)[nH]c3c(N)nc(C(F)(F)F)cc32)cn1`, for which, in series [1], the solubility entry is reported as “soluble”.
The same measure, in the same setting: the entry for `COCCCN1CCN(c2ncccc2Cn2c(=O)[nH]c3c(N)nc(C(F)(F)F)cc32)CC1` is “soluble”; for `CN1CCN(CC2CCCN2c2cc(Cn3c(=O)[nH]c4c(N)nc(C(F)(F)F)cc43)ccn2)CC1` (stereo unspecified) it is “soluble”.
Turning to `CN(C)CCN1CCN(c2ccc(Cn3c(=O)[nH]c4c(N)nc(C(F)(F)F)cc43)cn2)CC1`, the microsomal CLint was less than 8.5 µL/min/mg in “in vitro [2]” and less than 8 µL/min/mg in “in vitro [4]”. The log distribution coefficient (logD) in series [3] was determined as 0.9.

One may read the microsomal CLint as the rate of metabolic loss divided by the concentration. High values mean faster metabolism, low ones greater metabolic stability. For orientation: logD means the decadic logarithm of the distribution of all forms, ionised or not, between an organic phase and buffer at a given pH. Low values mean lower lipophilicity, high ones higher lipophilicity. For orientation: half-life means how long it takes for the measured level to halve.
